Data: US8604055B2, “Substituted benzylamino quinolines as cholesterol ester-transfer protein inhibitors” (Dr. Reddy's Laboratories Ltd., priority 2004, dated 2013)

target: T1, Recombinant CETP enzyme (Homo sapiens, UniProt P11597); test: In vitro fluorescence-based CETP inhibition assay (BODIPY-CE transfer from donor to acceptor microemulsions); assay type: biochemical; settings: recombinant CETP 0.14 ng/μl; transfer of fluorescent cholesteryl ester monitored over 2 hours; vs DMSO controls
T1 construct: purchased Cardiovascular Targets
T1 sequence (P11597 18-493): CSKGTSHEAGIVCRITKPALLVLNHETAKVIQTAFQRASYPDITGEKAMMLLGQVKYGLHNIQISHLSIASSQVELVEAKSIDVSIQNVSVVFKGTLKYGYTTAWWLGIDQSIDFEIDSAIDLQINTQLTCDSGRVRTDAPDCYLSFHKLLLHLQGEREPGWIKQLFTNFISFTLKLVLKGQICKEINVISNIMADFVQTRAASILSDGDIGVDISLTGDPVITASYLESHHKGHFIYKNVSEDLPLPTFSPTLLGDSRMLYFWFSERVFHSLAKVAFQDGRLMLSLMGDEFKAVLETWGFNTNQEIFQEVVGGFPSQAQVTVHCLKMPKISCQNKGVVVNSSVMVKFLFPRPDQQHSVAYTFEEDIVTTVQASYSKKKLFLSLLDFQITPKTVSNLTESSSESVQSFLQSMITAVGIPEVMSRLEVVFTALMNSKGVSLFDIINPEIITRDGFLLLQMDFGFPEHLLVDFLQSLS
Description: An in vitro fluorescence-based assay to identify CETP inhibitors was developed from modifications of the protocols outlined in Bisgaier et al., J Lipid Res., 34(9): 1625-34 (1993) and Epps et al., Chem Phys Lipids., 77(1): 51-63 (1995). Acceptor and donor lipid microemulsions were prepared according to Bisgaier et al., 1993, except that the buffer was prepared with 0.67 ug/mL human HDL (Calbiochem). Donor microemulsions contained the fluorescent cholesteryl ester analog BODIPY-CE (Molecular Probes), characterized by excitation and emission maxima at 503 nm and 518 nm, respectively. The CETP-mediated transfer of fluorescent cholesteryl ester to acceptor particles was monitored over a 2-hour time period using the FAM filter set (excitation 492 nm, emission 516 nm) in an MX3000P fluorescent plate reader (Stratagene). Recombinant CETP enzyme (Cardiovascular Targets) was used at 0.14 ng/μl, final concentration, to achieve lipid transfer. CETP inhibition by compounds was compared to DMSO controlsand graphed as a percentage of the control CETP activity over 2 hours. The IC50 curves for CETP inhibition were generated from the activity profiles. Active compounds were also tested for CETP inhibition as above, but in the presence of 3% human serum albumin, fraction V (Calbiochem).

SMILES	IC50
CCN(CC1CCCC1)c1nc2onc(C)c2cc1CN(Cc1cc(C(F)(F)F)cc(C(F)(F)F)c1)C(=O)OC [Example 32, (3,5-bis-trifluoromethyl-benzyl)-[6-(cyclopentylmethyl-ethyl-amino)-3-methyl-isoxazolo[5,4-b]pyridine-5-ylmethyl}-carbamic acid methyl ester]	≤ 1000 nM
Cc1cccc2cc(CN(Cc3cc(C(F)(F)F)cc(C(F)(F)F)c3)c3nnn(C(C)C)n3)c(N(CC3CC3)CC3CC3)nc12 [Example 85]	≤ 1000 nM
CCN(CC1CCC1)c1nc2ccccc2cc1CN(Cc1cc(C(F)(F)F)cc(C(F)(F)F)c1)c1cc(C)on1 [Example 65, (3-{[3,5-bis-trifluoromethyl-benzyl-(5-methyl-isoxazol-3-yl)-amino]-methyl}-quinolin-2-yl)-cyclobutylmethyl-ethyl-amine]	≤ 1000 nM
Cc1nn(C)c2nc(N(CC3CC3)CC3CC3)c(CN(Cc3cc(Cl)cc(Cl)c3)c3nnn(C)n3)cc12 [Example 21, bis-cyclopropylmethyl-(5-{[(3,5-dichlorobenzyl)-(2-methyl-2H-tetrazol-5-yl)-amino]-methyl}-1,3-dimethyl-1H-pyrazolo[3,4-b]pyridin-6-yl)-amine]	≤ 1000 nM
CCCCN(CC)c1nc2ccccc2cc1CN(Cc1cc(C(F)(F)F)cc(C(F)(F)F)c1)C(=O)OCC [Example 41, (3,5-bis-trifluoromethyl-benzyl)-[2-(butyl-ethyl-amino)-quinolin-3-ylmethyl]-carbamic acid ethyl ester]	≤ 5000 nM
CCN(CC1CC1)c1nc2ccccc2cc1CN(Cc1cc(C(F)(F)F)cc(C(F)(F)F)c1)C(=O)OC [Example 44, (3,5-bis-trifluoromethyl-benzyl)-[2-(cyclopropylmethyl-ethyl-amino)-quinolin-3-ylmethyl]-carbamic acid methyl ester]	≤ 5000 nM
CCOC(=O)NC(=S)N(Cc1cc(C(F)(F)F)cc(C(F)(F)F)c1)Cc1cc2ccccc2nc1N(CC)CC1CCCC1 [Example 49, 3-ethoxycarbonyl-1-(3,5-Bis-trifluoromethyl-benzyl)-1-[2-(cyclopentylmethyl-ethyl-amino)-quinolin-3-ylmethyl]-thiourea]	≤ 5000 nM
CCOC(=O)c1c(CN(Cc2cc(C(F)(F)F)cc(C(F)(F)F)c2)c2nnn(C)n2)c2ccccc2n1C(=O)C1CCCC1 [Example 127, 3-{[(3,5-bis-trifluoromethyl-benzyl)-(2-methyl-2H-tetrazol-5-yl)-amino]-methyl}-1-cyclopentanecarbonyl-1H-indole-2-carboxylic acid ethyl ester]	≤ 1000 nM
CCN(CC1CCCC1)c1nc2ccccc2cc1CN(Cc1cc(C(F)(F)F)cc(C(F)(F)F)c1)c1nc(C)co1 [Example 67]	≤ 1000 nM
CCN(CC1CCCC1)c1nc2ccccc2cc1CN(Cc1cc(C(F)(F)F)cc(C(F)(F)F)c1)C(=S)SC [Example 48, (3,5-bis-trifluoromethyl-benzyl)[2-(cyclopentylmethyl-ethyl-amino)-quinolin-3-ylmethyl]-dithiocarbamic acid methyl ester]	≤ 5000 nM
CCCCN(CC)c1nc2ccccc2cc1CN(Cc1cc(C(F)(F)F)cc(C(F)(F)F)c1)c1nnn(C)n1 [Example 54]	≤ 1000 nM
CCN(CC1CCCC1)c1nc2ccccc2cc1CN(Cc1cc(C(F)(F)F)cc(C(F)(F)F)c1)c1ccccn1 [Example 69, (3-{[(3,5-bis-trifluoromethyl-benzyl)-pyridin-2-yl-amino]-methyl)-quinolin-2-yl)-cyclopentylmethyl-ethyl-amine]	≤ 5000 nM
CCN(CC1CCC1)c1nc2c(cc1CN(Cc1cc(C(F)(F)F)cc(C(F)(F)F)c1)c1cc(C)on1)c(C)nn2C [Example 10, (5-{[(3,5-bis-trifluoromethyl-benzyl)-(5-methyl-isoxazol-3-yl)-amino]-methyl}-1,3-dimethyl-1H-pyrazolo[3,4-b]pyridin-6-yl)-cyclobutylmethyl-ethyl-amine]	≤ 1000 nM

Further lines, results first:

IC50	SMILES
≤ 1000 nM	CCn1ncc2cc(CN(Cc3cc(C(F)(F)F)cc(C(F)(F)F)c3)c3nnn(C)n3)c(N(CC3CC3)CC3CC3)nc21 [Example 14, (5-{[(3,5-bis-trifluoromethyl-benzyl)-(2-methyl-2H-tetrazol-5-yl)-amino]-methyl}-1-ethyl-1H-pyrazolo[3,4-b]pyridin-6-yl)-bis-cyclopropylmethyl-amine]
≤ 1000 nM	Cn1nnc(N(Cc2cc(C(F)(F)F)cc(C(F)(F)F)c2)Cc2cc3cnn(C)c3nc2N(CC2CC2)CC2CC2)n1 [Example 13, (5-{[(3,5-bis-trifluoromethyl-benzyl)-(2-methyl-2H-tetrazol-5-yl)-amino]-methyl}-1-methyl-1H-pyrazolo[3,4-b]pyridin-6-yl)-bis-cyclopropylmethyl-amine]
≤ 1000 nM	CCN(CC1CCCC1)c1nc2c(cc1CN(Cc1cc(C(F)(F)F)cc(C(F)(F)F)c1)c1nnn(C)n1)CCC2 [Example 76, (3-{[(3,5-bis-trifluoromethyl-benzyl)-(2-methyl-2H-tetrazole-5-yl)-amino]-methyl}-,6,7-dihydro-5H-[1]pyridine-2-yl)-cyclopentylmethyl-ethyl-amine]
≤ 1000 nM	Cc1nn(C)c2nc(N(CC3CC3)CC3CC3)c(CN(Cc3cc(C(F)(F)F)cc(C(F)(F)F)c3)c3nnn(C)n3)cc12 [Example 2, (5-{[(3,5-bis-trifluoromethyl-benzyl)-(2-methyl-2H-tetrazole-5-yl)-amino]-methyl}-1,3-dimethyl-1H-pyrazolo[3,4-b]pyridin-6-yl)-bis-cyclopropylmethyl-amine]
≤ 1000 nM	CCN(CC1CCC1)c1nc2ccccc2cc1CN(Cc1cc(C(F)(F)F)cc(C(F)(F)F)c1)c1nnn(C)n1 [Example 56]
≤ 1000 nM	CCN(CC1CC1)c1nc2ccccc2cc1CN(Cc1cc(C(F)(F)F)cc(C(F)(F)F)c1)c1nnn(C)n1 [Example 55]
≤ 1000 nM	CCN(CC1CCCC1)c1nc2c(cc1CN(Cc1cc(C(F)(F)F)cc(C(F)(F)F)c1)c1nnc(C)o1)CCCC2 [Example 78, (3-{[3,5-bis-trifluoromethyl-benzyl)-(5-methyl-[1,3,4oxadiazol-2-yl)-amino]-methyl}-5,6,7,8-tetrahydroquinoline-2-yl)-cyclopentylmethyl-ethyl-amine]
≤ 1000 nM	CCN(CC1CCCC1)c1nc2onc(C)c2cc1CN(Cc1cc(C(F)(F)F)cc(C(F)(F)F)c1)c1nnn(C)n1 [Example 33, (5-{[(3,5-bis-trifluoromethyl-benzyl)-(2-methyl-2H-tetrazol-5-yl)-amino]-methyl}-3-methyl-isoxazolo[5,4-b]pyridine-6-yl)-cyclopentylmethyl-ethyl-amine]
≤ 1000 nM	CCN(CC1CC1)c1nc2c(cc1CN(Cc1cc(C(F)(F)F)cc(C(F)(F)F)c1)c1nnn(C)n1)c(C)nn2C [Example 3, (5-{[(3,5-bis-trifluoromethyl-benzyl)-(2-methyl-2H-tetrazole-5-yl)-amino]-methyl}-1,3-dimethyl-1H-pyrazolo[3,4-b]pyridin-6-yl)-cyclopropylmethyl-ethyl-amine]
≤ 5000 nM	CCN(CC1CCCC1)c1nc2ccccc2cc1CN(Cc1cc(C(F)(F)F)cc(C(F)(F)F)c1)Cc1nnn(C)n1 [Example 70, (3-{[(3,5-bis-trifluoromethyl-benzyl)-(2-methyl-2H-tetrazol-5-ylmethyl)-amino]-methyl}-quinolin-2-yl)-cyclopentylmethyl-ethyl-amine]
≤ 5000 nM	CCN(CC1CCCC1)c1nc2c(cc1CN(Cc1cc(C(F)(F)F)cc(C(F)(F)F)c1)C(=O)OC)CCC2 [Example 75, (3,5-bis-trifluoromethyl-benzyl)-[2-(cyclopentylmethyl-ethyl-amino)-6,7-dihydro-5H-[1]pyridin-3-ylmethyl]-carbamic acid methyl ester]
≤ 1000 nM	CCN(CC1CCCC1)c1nc2c(cc1CN(Cc1cc(C(F)(F)F)cc(C(F)(F)F)c1)C(=O)OC)CCCC2 [Example 74]
≤ 5000 nM	CCN(CC1CCCC1)c1nc2ccccc2cc1CN(Cc1cc(C(F)(F)F)cc(C(F)(F)F)c1)C1=NCCO1 [Example 68, (3-{[(3,5-bis-trifluoromethyl-benzyl)-(4,5-dihydro-oxazol-2-yl)-amino]-methyl}-quinolin-2-yl)-cyclopentylmethyl-ethyl-amine]
≤ 1000 nM	Cn1nnc(N(Cc2cc(C(F)(F)F)cc(C(F)(F)F)c2)Cc2cc3cccc(Cl)c3nc2N(CC2CC2)CC2CC2)n1 [Example 90]
≤ 1000 nM	CCN(CC1CCC1)c1nc2c(cnn2C)cc1CN(Cc1cc(C(F)(F)F)cc(C(F)(F)F)c1)c1nnn(C)n1 [Example 12, (5-{[(3,5-bis-trifluoromethyl-benzyl)-(2-methyl-2H-tetrazol-5-yl)-amino]-methyl}-1-methyl-1H-pyrazolo[3,4-b]pyridin-6-yl)-cyclobutylmethyl-ethyl-amine]
